# From paper PMC3674988, “Scrutinizing MHC-I Binding Peptides and Their Limits of Variation” (PLoS Computational Biology, 2013)
# Tested on: H-2K^b:IgG fusion protein
# Assay: Thermal denaturation assay, direct binding of SIINFEKL fragments
# Design: species or system mouse
# Conditions: normalized fluorescence melting curves, first derivative; vs NoLigand; 100 µM peptide
# Method: Thermal denaturation studies were conducted using a StepOnePlus real-time PCR system (Applied Biosystems) with MicroAmp optical 96-well plates (Applied Biosystems cat. no. N8010560). Wells were loaded with 10 µl of H-2K^b:IgG fusion protein solution (protein conc. = 0.5 mg×ml^−1; BD Biosciences cat. no. 550750) – respectively 10 µl of PBS buffer (pH 7.36) for ligand-only controls – 2 µl of peptide or peptide fragments, 2 µl of 10× SYPRO Orange (SigmaAldrich cat. no. S5692) and 6 µl (8 µl for negative controls) to yield a total volume of 20 µl per well. Final concentrations calculated to 1 µM for H-2K^b:IgG fusion protein, 100 µM for the peptides/peptide fragments and 1× SYPRO Orange. Fluorescence intensity was measured using the Applied Biosystems ROX preset with respective excitation/emission maxima at 587/607 nm, while heating the wells continuously from 25°C to 99°C with a ramp rate of 1% (temperature increase of 1.5°C per minute). Results were recorded by StepOne 2.2.2 software and analyzed by identifying the local minimum of the derivative of the melting curve for the segment relevant for denaturation of the peptide-binding superdomain (α1,2) of the MHC-I heavy chain.
row,Substance,Melting point shift of peptide-MHC-I complex (melting curves)
1,IINFEKL [synthesized SIINFEKL fragment],significant melting point shift
2,INFE [synthesized SIINFEKL fragment],no melting point shift
3,INFEKL [synthesized SIINFEKL fragment],significant melting point shift
4,SIINF [synthesized SIINFEKL fragment],significant melting point shift
5,SIINFE [synthesized SIINFEKL fragment],significant melting point shift
6,SIINFEK [synthesized SIINFEKL fragment],significant melting point shift
